Results from BindingDB's records for patent US12065399 (Hoffmann-La Roche, 2024).

Target: Metabotropic glutamate receptor 4 (Homo sapiens, UniProt Q14833)
Test: Intracellular Ca2+ Mobilization Assay (FLIPR)
Procedure: A monoclonal HEK-293 cell line stably transfected with a cDNA encoding for the human mGlu4 receptor was generated. Cells were cultured according to standard protocols (Freshney, 2000) in Dulbecco's Modified Eagle Medium with high glucose supplemented with 1 mM glutamine, 10% (vol/vol) heat-inactivated bovine calf serum, penicillin/streptomycin, 50 μg/ml hygromycin and 15 μg/ml blasticidin (all cell culture reagents and antibiotics from Invitrogen, Basel, Switzerland).About 24 hrs before an experiment, 5×10^4 cells/well were seeded in poly-D-lysine coated, black/clear-bottomed 96-well plates. The cells were loaded with 2.5 μM Fluo-4AM in loading buffer (1×HBSS, 20 mM HEPES) for 1 hr at 37° C. and washed five times with loading buffer. The cells were transferred into a Functional Drug Screening System 7000 (Hamamatsu, Paris, France), and 11 half logarithmic serial dilutions of test compound at 37° C. were added and the cells were incubated for 10-30 min. with on-line recording of fluorescence. […]

Metabotropic glutamate receptor 4, sequence (Q14833 whole entry): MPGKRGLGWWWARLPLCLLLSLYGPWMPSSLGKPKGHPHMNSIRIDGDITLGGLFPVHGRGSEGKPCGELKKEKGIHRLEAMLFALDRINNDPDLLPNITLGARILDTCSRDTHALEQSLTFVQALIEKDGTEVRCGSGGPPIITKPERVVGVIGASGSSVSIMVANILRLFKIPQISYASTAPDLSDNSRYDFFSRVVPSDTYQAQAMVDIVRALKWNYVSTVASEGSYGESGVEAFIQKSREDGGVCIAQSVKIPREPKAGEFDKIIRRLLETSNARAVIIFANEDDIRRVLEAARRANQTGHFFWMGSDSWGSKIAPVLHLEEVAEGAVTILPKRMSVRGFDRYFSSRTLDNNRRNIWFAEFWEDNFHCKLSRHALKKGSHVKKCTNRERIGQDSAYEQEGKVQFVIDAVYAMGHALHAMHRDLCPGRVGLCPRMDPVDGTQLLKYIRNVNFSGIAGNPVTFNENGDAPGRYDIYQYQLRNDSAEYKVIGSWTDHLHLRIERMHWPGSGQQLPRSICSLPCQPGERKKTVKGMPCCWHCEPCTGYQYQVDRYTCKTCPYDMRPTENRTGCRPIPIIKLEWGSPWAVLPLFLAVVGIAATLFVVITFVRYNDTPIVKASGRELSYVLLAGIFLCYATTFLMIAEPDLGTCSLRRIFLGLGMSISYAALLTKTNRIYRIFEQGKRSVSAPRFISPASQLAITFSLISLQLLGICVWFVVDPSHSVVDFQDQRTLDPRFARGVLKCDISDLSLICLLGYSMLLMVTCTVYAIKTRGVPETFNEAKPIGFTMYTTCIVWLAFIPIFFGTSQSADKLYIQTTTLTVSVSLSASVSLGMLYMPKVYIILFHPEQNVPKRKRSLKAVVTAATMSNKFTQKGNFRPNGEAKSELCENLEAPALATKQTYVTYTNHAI

CC(C)(C)c1cnn(-c2cc(F)c(NS(=O)(=O)c3cccc(Cl)c3Cl)c(F)c2)c1 [US12065399, Example 59]
EC50: 9.28 µM
